Among the data in ChEMBL document CHEMBL1255461, “KPC-producing extreme drug-resistant Klebsiella pneumoniae isolate from a patient with diabetes mellitus and chronic renal failure on hemodialysis in South Korea” (2010) are MIC values, retold here.

Values after ≈ are worked out from the molar mass of the structure shown.

As usually defined, the MIC is the lowest concentration that inhibits growth of the organism.

The test concerns Klebsiella pneumoniae. The experiment in a line: Antimicrobial activity against multidrug-resistant Klebsiella pneumoniae isolate Kpn-DK2 by broth microdilution method. Format: functional. Background: Dilution methods test growth across graded concentrations, often in twofold steps.

The compound `Nc1nc(/C(=N/O)C(=O)N[C@@H]2C(=O)N3C(C(=O)O)=C(/C=C4\CCN([C@@H]5CCNC5)C4=O)CS[C@H]23)ns1` [CEFTOBIPROLE] had an MIC of more than 32 µg/mL. To GENTAMICIN belongs more than 64 µg/mL. Consider `CO/N=C(\C(=O)N[C@@H]1C(=O)N2C(C(=O)O)=C(COC(C)=O)CS[C@H]12)c1csc(N)n1` [CEFOTAXIME], for which the MIC was more than 128 µg/mL.

The compound POLYMYXIN B displayed a minimal inhibitory concentration (MIC) of more than 64 µg/mL. The figure for `CC1(C)[C@H](C(=O)O)N2C(=O)C[C@H]2S1(=O)=O` [SULBACTAM] is 32 µg/mL (≈ 137 µM); for `C[C@H]1[C@H](NC(=O)/C(=N\OC(C)(C)C(=O)O)c2csc(N)n2)C(=O)N1S(=O)(=O)O` [AZTREONAM] it is more than 64 µg/mL. To `CN(C)c1cc(NC(=O)CNC(C)(C)C)c(O)c2c1C[C@H]1C[C@H]3[C@H](N(C)C)C(O)=C(C(N)=O)C(=O)[C@@]3(O)C(O)=C1C2=O` [TIGECYCLINE] belongs 4 µg/mL (≈ 6.83 µM).

Compound `C[C@@H](O)[C@H]1C(=O)N2C(C(=O)O)=C(SCCNC=N)C[C@H]12` [IMIPENEM ANHYDROUS] came in with an MIC of 32 µg/mL (≈ 107 µM). In the case of `CC1(C)S[C@@H]2[C@H](NC(=O)[C@H](N)c3ccccc3)C(=O)N2[C@H]1C(=O)O` [AMPICILLIN], the minimal inhibitory concentration (MIC) is more than 64 µg/mL. The figure for `CCN1CCN(C(=O)N[C@@H](C(=O)N[C@@H]2C(=O)N3[C@@H]2SC(C)(C)[C@@H]3C(=O)O)c2ccccc2)C(=O)C1=O` [PIPERACILLIN] is more than 256 µg/mL.

With `C[C@]1(Cn2ccnn2)[C@H](C(=O)O)N2C(=O)C[C@H]2S1(=O)=O` [TAZOBACTAM], it took 4 µg/mL (≈ 13.3 µM) to inhibit growth (MIC). The figure for `C[C@@H](O)[C@H]1C(=O)N2C(C(=O)O)=C(S[C@@H]3CN[C@H](CNS(N)(=O)=O)C3)[C@H](C)[C@H]12` [DORIPENEM] is 16 µg/mL (≈ 38 µM).

For COLISTIN, the MIC was more than 64 µg/mL.

Regarding `CCN1CCN(C(=O)N[C@@H](C(=O)N[C@@H]2C(=O)N3C(C(=O)O)=C(CSc4nnnn4C)CS[C@H]23)c2ccc(O)cc2)C(=O)C1=O` [CEFOPERAZONE], the MIC is more than 64 µg/mL. To `COc1cc(Cc2cnc(N)nc2N)cc(OC)c1OC` [TRIMETHOPRIM] belongs more than 32 µg/mL; to `CC(C)(O/N=C(\C(=O)N[C@@H]1C(=O)N2C(C(=O)[O-])=C(C[n+]3ccccc3)CS[C@H]12)c1csc(N)n1)C(=O)O` [CEFTAZIDIME], more than 64 µg/mL; to `CO/N=C(\C(=O)N[C@@H]1C(=O)N2C(C(=O)[O-])=C(C[N+]3(C)CCCC3)CS[C@H]12)c1csc(N)n1`, more than 64 µg/mL.
